Experimental data: PubChem BioAssay AID248 (DTP/NCI, 2004)
Where “and” joins values, the source holds several entries; their conditions need not be identical. Identical values can stand only once. Inconclusive results and toxic doses are left out. Rule as the data show it: active = T/C of 150% or more; inactive = T/C below 125%.

Tested on: L1210 leukemia ip in BDF1 mice, survival T/C
Assay: NCI In Vivo Anticancer Drug Screen. Data for tumor model L1210 Leukemia (intraperitoneal) in B6D2F1 (BDF1) mice
Details: endpoint: mean survival time, higher = longer survival
Method in brief: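 Transplantable tumor model; survival measured in treated vs vehicle control mice. Value = treated/control.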

[1] = dose: 100.0 mg/kg/injection, schedule: Q04DX003 (ip), vehicle: Klucel (hydroxypropylcellulose) (HPC)
[2] = dose: 200.0 mg/kg/injection, schedule: Q04DX003 (ip), vehicle: Klucel (hydroxypropylcellulose) (HPC)
[3] = dose: 100.0 mg/kg/injection, schedule: Q01DX001 (ip), vehicle: saline
[4] = dose: 200.0 mg/kg/injection, schedule: Q01DX001 (ip), vehicle: saline
[5] = dose: 50.0 mg/kg/injection, schedule: Q04DX002 (ip), vehicle: saline
[6] = dose: 100.0 mg/kg/injection, schedule: Q04DX002 (ip), vehicle: saline
[7] = dose: 400.0 mg/kg/injection, schedule: Q04DX003 (ip), vehicle: Klucel (hydroxypropylcellulose) (HPC)
[8] = dose: 50.0 mg/kg/injection, schedule: Q01DX009 (ip), vehicle: saline with Tween-80
[9] = dose: 100.0 mg/kg/injection, schedule: Q01DX009 (ip), vehicle: saline with Tween-80
[10] = dose: 200.0 mg/kg/injection, schedule: Q01DX009 (ip), vehicle: saline with Tween-80
[11] = dose: 100.0 mg/kg/injection, schedule: Q01DX009 (ip), vehicle: Klucel (hydroxypropylcellulose) (HPC)
[12] = dose: 200.0 mg/kg/injection, schedule: Q01DX009 (ip), vehicle: Klucel (hydroxypropylcellulose) (HPC)
[13] = dose: 50.0 mg/kg/injection, schedule: Q01DX009 (ip), vehicle: Klucel (hydroxypropylcellulose) (HPC)
[14] = dose: 100.0 mg/kg/injection, schedule: Q04DX003 (ip), vehicle: saline with Tween-80
[15] = dose: 200.0 mg/kg/injection, schedule: Q04DX003 (ip), vehicle: saline with Tween-80
[16] = dose: 50.0 mg/kg/injection, schedule: Q01DX001 (ip), vehicle: saline
[17] = dose: 400.0 mg/kg/injection, schedule: Q01DX001 (ip), vehicle: saline
[18] = dose: 400.0 mg/kg/injection, schedule: Q01DX009 (ip), vehicle: saline with Tween-80
[19] = dose: 75.0 mg/kg/injection, schedule: Q01DX001 (ip), vehicle: saline
[20] = dose: 100.0 mg/kg/injection, schedule: Q01DX001 (ip), vehicle: saline with Tween-80
[21] = dose: 400.0 mg/kg/injection, schedule: Q04DX003 (ip), vehicle: saline with Tween-80

Measured: T/C

C[C@@H]1CC[C@@]2(NC1)O[C@H]1C[C@H]3[C@@H]4CC=C5C[C@@H](O)CC[C@]5(C)[C@H]4CC[C@]3(C)[C@H]1[C@@H]2C
inactive: dose: 5.0 mg/kg/injection, schedule: Q01DX Z (sc), vehicle: steriod suspending solution 91 % of control | dose: 10.0 mg/kg/injection, schedule: Q01DX Z (sc), vehicle: steriod suspending solution 100 % of control | dose: 20.0 mg/kg/injection, schedule: Q01DX Z (sc), vehicle: steriod suspending solution 96 % of control | dose: 40.0 mg/kg/injection, schedule: Q01DX Z (sc), vehicle: steriod suspending solution 98 % of control | dose: 50.0 mg/kg/injection, schedule: Q01DX009 (ip), vehicle: saline sonified 95 % of control | dose: 100.0 mg/kg/injection, schedule: Q01DX009 (ip), vehicle: saline sonified 94 % of control | [1] 94 % of control | dose: 200.0 mg/kg/injection, schedule: Q01DX009 (ip), vehicle: saline sonified 90 % of control | [2] 99 % of control

COC(=O)/C=C(\C)Nc1ccc(Cc2ccc(N/C(C)=C/C(=O)OC)cc2)cc1
inactive: [3] 95 % of control | [4] 86 % of control

CC(C)C(N)C(=O)NCCCCC(N)C(=O)O (stereo not given)
inactive: dose: 25.0 mg/kg/injection, schedule: Q04DX002 (ip), vehicle: saline 103 % of control | [5] 103 % of control | [6] 100 % of control

CC1=NN(c2ccc(S(=O)(=O)O)cc2)C(=O)C1
inactive: [1] 89 % of control | [2] 98 % of control | [7] 91 % of control

O=C(N/N=C\c1ccc(/C=N\NC(=O)c2ccc(O)cc2)cc1)c1ccc(O)cc1
inactive: [8] 112 % of control | [9] 94 % of control | [10] 105 % of control

CCCC(C)OP(=O)(OC(C)CC)OC(C)CC (stereo not given)
inactive: [11] 97 % of control | [12] 97 % of control

CCCN1CC(Br)C(=O)NC1=O (stereo not given)
inactive: dose: 100.0 mg/kg/injection, schedule: Q01DX Z (ip), vehicle: methylcellulose (MC) 90 % of control

CC(=O)NC(CC(=O)O)C(=O)O (stereo not given)
inactive: [13] 97 % of control | [5] 107 % of control | [11] 105 % of control | dose: 100.0 mg/kg/injection, schedule: Q01DX009 (ip), vehicle: saline 107 % of control | [6] 107 % of control | [1] 90 % of control | [12] 101 % of control | dose: 200.0 mg/kg/injection, schedule: Q01DX009 (ip), vehicle: saline 113 % of control | dose: 200.0 mg/kg/injection, schedule: Q04DX002 (ip), vehicle: saline 98 % of control | [2] 87 % of control | dose: 400.0 mg/kg/injection, schedule: Q01DX009 (ip), vehicle: saline 102 % of control | [7] 97 % of control

Cc1nc(C)c(Br)s1
inactive: dose: 25.0 mg/kg/injection, schedule: Q01DX009 (ip), vehicle: saline with Tween-80 97 % of control | [8] 96 % of control | [9] 112 % of control | [14] 105 % of control | [15] 110 % of control

CCC12CC(Br)C(C1)OC2=O (stereo not given)
inactive: dose: 100.0 mg/kg/injection, schedule: Q04DX003 (ip), vehicle: other 100 % of control | dose: 200.0 mg/kg/injection, schedule: Q04DX003 (ip), vehicle: other 95 % of control | dose: 400.0 mg/kg/injection, schedule: Q04DX003 (ip), vehicle: other 94 % of control

OC(CCN1CCCCC1)(c1ccccc1)C1CCCC1 (stereo not given)
inactive: dose: 6.25 mg/kg/injection, schedule: Q01DX009 (ip), vehicle: Klucel (hydroxypropylcellulose) (HPC) 114 % of control | dose: 12.5 mg/kg/injection, schedule: Q01DX009 (ip), vehicle: Klucel (hydroxypropylcellulose) (HPC) 100 % of control | dose: 25.0 mg/kg/injection, schedule: Q01DX009 (ip), vehicle: Klucel (hydroxypropylcellulose) (HPC) 94 % of control | dose: 25.0 mg/kg/injection, schedule: Q04DX003 (ip), vehicle: Klucel (hydroxypropylcellulose) (HPC) 100 % of control | [13] 97 % of control | dose: 50.0 mg/kg/injection, schedule: Q04DX003 (ip), vehicle: Klucel (hydroxypropylcellulose) (HPC) 96 % of control | [11] 97 % of control | [1] 96 % of control

C(=N\N=c1\[nH][nH]/c(=N/N=C/c2ccc(-c3ccccc3)cc2)c2ccccc12)/c1ccc(-c2ccccc2)cc1
inactive: [16] 110 % of control | [3] 98 % of control | [4] 95 % of control | [17] 98 % of control

O=C(/C(Br)=C/c1ccccc1)/C(Br)=C/c1ccccc1
inactive: dose: 100.0 mg/kg/injection, schedule: Q01DX001 (ip), vehicle: saline sonified 97 % of control | [9] 109 % of control | dose: 200.0 mg/kg/injection, schedule: Q01DX001 (ip), vehicle: saline sonified 98 % of control | [10] 93 % of control | dose: 400.0 mg/kg/injection, schedule: Q01DX001 (ip), vehicle: saline sonified 93 % of control | [18] 94 % of control

S=C([S-])N1CCCCC1.S=C([S-])N1CCCCC1.[Zn]
inactive: dose: 18.8 mg/kg/injection, schedule: Q04DX003 (ip), vehicle: saline 92 % of control | dose: 37.5 mg/kg/injection, schedule: Q04DX003 (ip), vehicle: saline 92 % of control | [19] 88 % of control | dose: 75.0 mg/kg/injection, schedule: Q04DX003 (ip), vehicle: saline 96 % of control

O=C(/C=C/c1cccc2ccccc12)c1ccccc1[N+](=O)[O-]
inactive: [20] 96 % of control | [9] 96 % of control and 87 % of control | dose: 100.0 mg/kg/injection, schedule: Q04DX002 (ip), vehicle: saline with Tween-80 88 % of control | [14] 96 % of control | dose: 200.0 mg/kg/injection, schedule: Q01DX001 (ip), vehicle: saline with Tween-80 96 % of control | [10] 89 % of control and 90 % of control | dose: 200.0 mg/kg/injection, schedule: Q04DX002 (ip), vehicle: saline with Tween-80 90 % of control | [15] 90 % of control | dose: 400.0 mg/kg/injection, schedule: Q01DX001 (ip), vehicle: saline with Tween-80 91 % of control | [18] 86 % of control and 90 % of control | dose: 400.0 mg/kg/injection, schedule: Q04DX002 (ip), vehicle: saline with Tween-80 88 % of control and 90 % of control | [21] 91 % of control

NC(=O)C(c1ccccc1)C(O)c1ccccc1 (stereo not given)
inactive: [16] 101 % of control | [3] 95 % of control | [4] 97 % of control | [17] 101 % of control

Nc1c(C(F)(F)F)[nH]c(Cl)nc1=S
inactive: dose: 29.0 mg/kg/injection, schedule: Q01DX Z (ip), vehicle: methylcellulose (MC) 105 % of control | dose: 66.0 mg/kg/injection, schedule: Q01DX Z (ip), vehicle: methylcellulose (MC) 94 % of control

O=C1C(Cl)=C(Nc2ccc(Cl)c(Cl)c2)C(=O)c2ccccc21
inactive: [14] 98 % of control | [15] 92 % of control | [21] 98 % of control

C/C(CCCC(C)(C)C(=O)O)=N/Nc1ccc([N+](=O)[O-])cc1[N+](=O)[O-]
inactive: dose: 75.0 mg/kg/injection, schedule: Q01DX001 (ip), vehicle: other 93 % of control

[O-]/[N+](=C\c1ccccc1)c1ccc(Cl)cc1
inactive: [19] 96 % of control | dose: 150.0 mg/kg/injection, schedule: Q01DX001 (ip), vehicle: saline 95 % of control | dose: 300.0 mg/kg/injection, schedule: Q01DX001 (ip), vehicle: saline 91 % of control

O=C(O)c1ccccc1/C=C/c1ccc([N+](=O)[O-])cc1
inactive: [20] 97 % of control

CC(C)=CN1CCCCC1
inactive: [8] 95 % of control | [9] 101 % of control | [14] 98 % of control | [15] 96 % of control
